EP0538248B1, “TETRAHYDROISOQUINOLINYLCARBAMATES OF 1,2,3,3A,8,8A-HEXAHYDRO-1,3A,8-TRIMETHYLPYRROLO [2,3-B]INDOLE” (priority 1990, dated 1992)
Read-outs that look alike come from different tables or passages of the source.

Tests used:
[1] = Oral bioavailability studies (absorption, brain:plasma partition)
rat brain AChE = molecular target: T1, rat brain AChE (Rattus norvegicus, UniProt P37136)
T1 sequence (P37136 32-614): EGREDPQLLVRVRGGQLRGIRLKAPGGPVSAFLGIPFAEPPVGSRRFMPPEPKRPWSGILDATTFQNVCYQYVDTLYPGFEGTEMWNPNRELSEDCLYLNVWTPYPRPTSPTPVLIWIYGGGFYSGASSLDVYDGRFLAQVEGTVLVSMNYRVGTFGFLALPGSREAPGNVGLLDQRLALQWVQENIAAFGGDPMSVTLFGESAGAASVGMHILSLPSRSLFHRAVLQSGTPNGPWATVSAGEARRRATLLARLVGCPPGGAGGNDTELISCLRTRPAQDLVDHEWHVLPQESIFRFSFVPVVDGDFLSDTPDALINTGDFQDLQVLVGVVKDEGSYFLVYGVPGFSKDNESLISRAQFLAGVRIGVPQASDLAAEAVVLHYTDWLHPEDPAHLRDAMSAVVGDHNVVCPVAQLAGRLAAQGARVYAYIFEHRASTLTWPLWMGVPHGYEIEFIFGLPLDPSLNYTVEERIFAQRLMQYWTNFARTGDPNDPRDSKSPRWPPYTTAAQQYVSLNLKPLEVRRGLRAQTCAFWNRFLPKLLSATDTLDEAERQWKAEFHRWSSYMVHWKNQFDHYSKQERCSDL
Experimental: The method described below was used in this invention for assaying cholinesterase activity. This is a modification of the method of Ellman et al., Biochem. Pharmacol. 7, 98 (1961).
• A. Reagents - • 1. 0.05 M Phosphate buffer, pH 7.2 • (a) 6.85 g NaH2PO4•H2O/100 ml distilled H2O • (b) 13.40 g Na2HPO4•7H2O/100 ml distilled H2O • (c) add (a) to (b) until pH reaches 7.2 • (d) Dilute 1:10 • 2. Substrate in buffer • (a) 198 mg acetylthiocholine chloride (10 mM) • (b) q.s to 100 ml with 0.05 M phosphate buffer, pH 7.2 (reagent 1) • 3. DTNB in buffer • (a) 19.8 mg 5,5-dithiobisnitrobenzoic acid (DTNB) (0.5 mM) • (b) q.s. to 100 ml with 0.05 M phosphate buffer, pH 7.2 (reagent 1) • 4. A 2 mM stock solution of the test drug is made up in a suitable solvent and q.s. to volume with 0.5 mM DTNB (reagent 3). Drugs are serially diluted (1:10) such that the final concentration (in cuvette) is 10^-4 M and screened for activity. If active, IC50 values are determined from the inhibitory activity of subsequent concentrations. • B. Tissue Preparation- Male Wistar rats are decapitated, brains rapidly removed, copora striata disected free, weighed and homogenized in 19 volumes (approximately 7 mg protein/ml) of 0.05 M phosphate buffer, pH 7.2 using a Potter-Elvehjem homogenizer. A 25 microliter aliquot of the homogenate is added to 1.0 milliter vehicle or various concentrations of the test drug and preincubated for 10 minutes at 37°C. • C. Assay- Enzyme activity is measured with the Beckman DU-50 spectrophotometer. This method can be used for IC50 determinations and for measuring kinetic constants. Instruments Settings • Kinetics Soft-Pac Module #598273 (10) • Program #6 Kindata: • Source - Vis • Wavelength - 412 nm • Sipper - none • Cuvettes - 2 ml cuvettes using auto 6-sampler • Blank - 1 for each substrate concentration • Interval time - 15 seconds (15 or 30 seconds for kinetics) • Total time - 5 minutes (5 or 10 minutes for kinetics) • Plot - yes • Span - autoscale • Slope - increasing • Results - yes (gives slope) • Factor - 1
Reagents are added to the blank and sample cuvettes as follows: Blank: 0.8 ml Phosphate Buffer/DTNB 0.8 ml Buffer/Substrate Control: 0.8 ml Phosphate Buffer/DTNB/Enzyme 0.8 ml Phosphate Buffer/Substrate Drug: 0.8 ml Phosphate Buffer/DTNB/Drug/ Enzyme 0.8 ml Phosphate Buffer/Substrate Blank values are determined for each run to control for non-enzymatic hydrolysis of substrate and these values are automatically subtracted by the kindata program available on kinetics soft-pac module. This program also calculates the rate of absorbance change for each cuvette.
Substrate concentration is 10 mM diluted 1:2 in assay yielding final concentration of 5 mM.

anesthetized dog = assay: Acute cardiovascular hemodynamic evaluation in the anesthetized dog; settings: for CO: cardiac output; for HR: heart rate; for MAP: mean arterial blood pressure; for LVEDP: left ventricular end-diastolic pressure; for RAP: right atrial pressure
Experimental: (Details of test methods used for determining acute cardiovascular hemodynamic effects are presented following the Conclusion section).
(§1) Beagles of either sex are anesthetized with sodium thiopental 15 mg/kg + sodium barbital 200 mg/kg + 60 mg of sodium pentobarbital i.v. The trachea is intubated with a cuffed endotracheal tube and connected to a Harvard Respirator Pump set at 20 ml/stroke and 10 strokes/minute. The right femoral artery and vein are exposed and cannulated with polyethylene tubing for measurement of arterial blood pressure and i.v. administration of drugs, respectively. The duration of these experiments is two hours postdrug when drug is administered i.v. and three hours when administered i.d.
(§2) The arterial cannula is connected to a Statham P23Gb transducer. Left ventricular cardiac catheterization is accomplished by introducing a Millar microtip pressure transducer into the left carotid artery and advancing it to the left ventricle. The cannula is connected to a Millar TC-100 transducer control unit which is connected to a Beckman voltage/pressure pulse coupler. Ventricular pressure and its first derivative dP/dt are measured simultaneously by wiring the signal output from the left ventricular pressure tracing into a differentiator. […] The proximal lumen of this catheter is in the right atrium when the distal lumen and thermistor have been properly placed in the pulmonary artery. The signal outputs from the proximal and distal sites are connected to Statham P23BB transducers to measure right atrial pressure (RAP) and pulmonary artery pressure (PAP). Cardiac output is determined by injecting 5 ml of iced 5% dextrose in water into the proximal site (right atrium) and then measuring the temperature change in the pulmonary artery. Using the Stewart-Hamilton equation, the cardiac output can be determined by integrating the area under the thermodilution curve with an Edwards Cardiac Output Computer (model 9520). Heart rate is determined with a Beckman Cardiotach which sums the pressure waves from the pulse pressure curve of the arterial pressure. Lead II EKG is recorded. […] The measurement of these parameters provides information so that the following may be either measured directly or calculated: • 1. Mean Arterial Blood Pressure - MAP (mmHg) • 2. Heart Rate - HR • 3. Cardiac Output - CO (1/minute) • 4. Total Peripheral Resistance - TPR • 5. Cardiac Index - CI (CO/m^2) • 6. Stroke Volume - SV (ml/beat) • 7. Stroke Work - SW (gm-m/beat) • 8. Central Venous Pressure - CVP measured as right atrial pressure (RAP) mmHg or cmH2O. • 9. Left Ventricular End Diastolic Pressure - LVEDP (mmHg) • 10. Rate of Rise of Ventricular Pressure - dP/dt/Pmax This parameter is a better estimate of the contractile state of the myocardium that dP/ dt alone since the former is relatively independent of the loading conditions of the heart (sec^-1). • 11. Plumonary Artery Pressure - PAP (mmHg) • 12. Electrocardiogram - EKG

[2] = Stability on incubation with human plasma at 37°C; assay type: in vitro ADME; settings: after 4 hours
butyrylcholinesterase = butyrylcholinesterase (Homo sapiens, UniProt P06276); settings: relative to physostigmine
Chain of butyrylcholinesterase (P06276 29-602): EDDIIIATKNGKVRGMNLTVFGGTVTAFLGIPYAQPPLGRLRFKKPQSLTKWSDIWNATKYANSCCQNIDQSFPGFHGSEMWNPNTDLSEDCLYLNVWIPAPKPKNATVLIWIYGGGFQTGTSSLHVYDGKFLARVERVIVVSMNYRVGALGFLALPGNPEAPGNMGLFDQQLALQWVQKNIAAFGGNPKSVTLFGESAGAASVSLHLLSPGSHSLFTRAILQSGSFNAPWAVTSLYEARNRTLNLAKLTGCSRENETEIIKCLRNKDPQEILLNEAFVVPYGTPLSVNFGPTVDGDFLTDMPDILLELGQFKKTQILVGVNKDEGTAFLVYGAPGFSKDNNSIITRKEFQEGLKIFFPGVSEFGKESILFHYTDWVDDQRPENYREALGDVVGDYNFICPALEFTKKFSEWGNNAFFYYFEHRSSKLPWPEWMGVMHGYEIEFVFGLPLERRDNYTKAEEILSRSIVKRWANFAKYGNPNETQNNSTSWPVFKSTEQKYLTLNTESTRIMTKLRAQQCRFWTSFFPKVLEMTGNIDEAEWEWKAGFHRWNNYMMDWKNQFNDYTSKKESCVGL

anesthetized dogs = assay: Cardiovascular effects in anesthetized dogs during combined blockade of alpha and beta adrenergic receptors
Experimental: as §1
as §2, with “The signal outputs from the proximal and distal sites are connected to Statham P23BB transducers to measure right atrial pressure (RAP) and pulmonary artery pressure (PAP).” left out, “Mean Arterial Blood Pressure - MAP (mmHg) • 2. Heart Rate - HR • 3. Cardiac Output - CO (1/minute) • 4. Total Peripheral Resistance - TPR • 5. Cardiac Index - CI (CO/m^2) • 6. Stroke Volume - SV (ml/beat) • 7. Stroke Work - SW (gm-m/beat) • 8.” left out, “Left Ventricular End Diastolic Pressure - LVEDP (mmHg) • 10. Rate of Rise of Ventricular Pressure - dP/dt/Pmax This parameter is a better estimate of the contractile state of the myocardium that dP/ dt alone since the former is relatively independent of the loading conditions of the heart (sec^-1). • 11. Plumonary Artery Pressure - PAP (mmHg) • 12. Electrocardiogram - EKG” left out

[3] = system: [^3H]norepinephrine release; assay: [3H]norepinephrine release in vitro; assay type: biochemical, Rat; settings: Compound A at 100 µM
[4] = 0.01 mg/kg/min. i.v., anesthetized dog
[5] = 0.1 mg/kg/min. i.v., anesthetized dog
[6] = 0.01 mg/kg/min i.v. during alpha and beta receptor blockade

Compound	oral absorption / bioavailability [1]	TRP (anesthetized dog; [4])	dP/dT (anesthetized dog; [4])	TRP (anesthetized dog; [5])	dP/dT (anesthetized dog; [5])	CO (anesthetized dog; [5])	HR (anesthetized dog; [4])	HR (anesthetized dog; [5])	MAP (anesthetized dog; [4])	MAP (anesthetized dog; [5])	compound remaining after incubation with human plasma [2]	other results
(3aS-cis)-1,2,3,3a,8,8a-hexahydro-1,3a,8-trimethylpyrrolo[2,3-b]indol-5-ol,(1,2,3,4-tetrahydroisoquinolinyl)carbamate [Compound A]	rapidly absorbed orally	-18%	+37%	+61%	+38%	+40%	-12%	-13%	-12%	+54%	approximately 70%	accumulation effect on repeated administration (rat brain AChE; 20 mg/kg for four days in rats): no accumulation effect; inhibition of rat brain AChE ex vivo (rat brain AChE; 20 mg/kg, 4 hours after oral administration): significantly inhibitied; inhibition of rat brain AChE ex vivo (rat brain AChE; 20 mg/kg, 6 hours after oral administration): significantly inhibitied; inhibition of rat brain AChE ex vivo (rat brain AChE; 20 mg/kg, 24 hours after oral administration): not statistically significant; inhibition of rat brain AChE ex vivo (rat brain AChE; after oral administration): significant inhibition; potency as an inhibitor of butyrylcholinesterase, times less potent than physostigmine (butyrylcholinesterase): approximately 34 times; cardiac and hemodynamic effects (anesthetized dogs; 0.1 mg/kg/min i.v. during alpha and beta adrenergic blockade): moderate decreases in blood pressure and cardiac output; [^3H]norepinephrine release in vitro [3]: stimulated
CNC(=O)Oc1ccc2c(c1)[C@]1(C)CCN(C)[C@@H]1N2C [physostigmine]	so poorly bioavailable by the oral route that pharmacokinetic data was not available	-34%	-32%	-48%	-80%	-79%	-49%	-82%	-49%	-78%	completely destroyed	mortality (anesthetized dog; 0.01 mg/kg/min i.v., intact alpha and beta adrenergic receptors): no mortality; ECG (anesthetized dog; [5]): A-V block inc. T wave; CO (anesthetized dog; [4]): -23%; LVEDP (anesthetized dog; [4]): +5mmHG; LVEDP (anesthetized dog; [5]): +8mmHG; RAP (anesthetized dog; [4]): +5mmHG; RAP (anesthetized dog; [5]): +8mmHG; mortality (dogs) (anesthetized dogs; [6]): 3 out of 3; time to mortality (anesthetized dogs; [6]): 17 to 29 min
